Results as given in publication PMC12381781, “Structural and functional insights into the selective inhibition of mutant tau aggregation by purpurin and oleocanthal in frontotemporal dementia” (Protein Science : A Publication of the Protein Society, 2025).
“Also recorded” adds a separate entry of the source.

Legend:
R2R3 (P301L) tau peptide = R2R3 (P301L) tau peptide (Homo sapiens, UniProt P10636, P618L); test: ThT aggregation assay of monomeric R2R3 (P301L) peptide; assay type: biochemical; conditions: for ThT-stained aggregates, confocal imaging: R2R3 P301L, end of ThT assay
R2R3 (P301L) tau peptide, sequence (P10636 592-653 P618L): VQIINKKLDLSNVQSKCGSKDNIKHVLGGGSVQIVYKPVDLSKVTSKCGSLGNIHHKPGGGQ
Experimental: (§1) The aggregation kinetics of tau peptides were monitored using a ThT assay. A 40 μL reaction mixture containing 15 μM ThT (Sigma‐Aldrich, Cat. # T3516‐5G) and 50 μM peptide in the absence (control) or presence of 0.1 μM, 1 μM, and 10 μM PUR or OLC was prepared on ice in aggregation buffer (20 mM Tris [pH 7.4], 100 mM NaCl, 1 mM ethylenediaminetetraacetic acid [EDTA]) containing 5 μM heparin (Sigma‐Aldrich, Cat. #H4784). dithiothreitol (DTT) was excluded to avoid its differential effects on the aggregation kinetics of tau peptides containing Cys291 or Cys322 and to prevent peroxide generation by redox‐active compounds like PUR, which can lead to oxidative artifacts and false‐positive inhibition signals, as reported in our previous study (Annadurai, Malina, Salmona, et al., [2022]). This mixture was then dispensed into a clear‐bottom, black 384‐well ViewPlate (Revvity, Waltham, MA, United States; Part # 6007460) and sealed with a TopSealA‐PLUS (Revvity) to prevent evaporation.
Aggregation was monitored using EnSpire Multimode Plate Reader (Revvity) at 37°C with constant agitation (1000 rpm). To minimize condensation, the upper heater temperature was set to 2°C higher than the lower heater temperature. ThT fluorescence (ThT—λ ex: 460–490 nm and λem: 500–550 nm) was recorded every 5–10 min for 48 h.
(§2) ThT fluorescence curves were fitted to a sigmoidal function in GraphPad Prism (version 10, San Diego, CA, USA) using the following equation:
(§3) Y=Top/1+expV50–X/Slope , where Y is the ThT fluorescence intensity, X is time (h), Top is the maximum fluorescence intensity, V50 is the time to reach 50% of Top, and Slope describes the steepness of the aggregation transition. Baseline fluorescence at the start of the measurements was relatively low across samples and was not separately fitted. In samples showing early increases in fluorescence, the aggregation trajectory was modeled directly without introducing an independent baseline parameter.
The V50 value obtained from each replicate was used as the aggregation t 1/2 for statistical analysis.
To evaluate the effect of compounds on the extent of aggregation, the AUC was calculated for each replicate ThT fluorescence curve using GraphPad Prism. AUC values were then normalized to the mean AUC of the untreated control group and expressed as “aggregation (% of control),” serving as an indirect and comparative measure of fibril formation.
Figure S11. Confocal imaging of ThT-stained aggregates formed in the presence of PUR and OLC (corresponding to Figure 3). At the end of the ThT aggregation assay, reaction mixtures containing WT or mutant R2R3 tau peptides (P301L, V287I, N279K), incubated in the absence (CTL) or presence of 10 µM PUR or OLC, were collected from assay wells, embedded in 0.05% low-melting agarose, and imaged. ThT fluorescence was acquired using a Yokogawa Cell Voyager 7000S high-content imaging system equipped with a 20× objective (Ex: 460–490 nm, Em: 500–550 nm) and analyzed with Signals Image Artist (Revvity). […] Scale bar: 20 μm.

R2R3 (V287I) tau peptide = R2R3 (V287I) tau peptide (Homo sapiens, UniProt P10636, V604I); test: Atomic force microscopy of R2R3 (V287I) aggregates; assay type: biochemical; conditions: compound 10 μM, 48 h
R2R3 (V287I) tau peptide, sequence (P10636 592-653 V604I): as the sequence (P10636 592-653 P618L) above, with V13I, L27P counted along it
Experimental: Aggregates collected after 48 h of aggregation were processed for AFM analysis as described previously (Annadurai, Malina, Malohlava, et al., [2022]).

Tau Biosensor cells = test: MTS cytotoxicity assay, Tau Biosensor cells; assay type: cell-based; conditions: 0-100 µM, 72 h
Experimental: Figure S16. Cytotoxic activity of PUR and OLC. Tau Biosensor and CCRF-CEM (human leukemic lymphoblast) cells were treated with increasing concentrations (0-100 µM) of PUR and OLC for 72 h. Cell viability was then assessed using the MTS assay. CCRF-CEM (human leukemic lymphoblasts) cells, known for their high sensitivity to cytotoxic agents ^1, were used as positive controls. […] Calculated IC50 values are indicated in the graphs. Mean ± SEM (n = 3).

R2R3 (WT) tau peptide = target: T1, R2R3 (WT) tau peptide (Homo sapiens, UniProt P10636); test: ThT aggregation assay of monomeric R2R3 (WT) peptide; assay type: biochemical; conditions: compound 10 μM; for ThT-stained aggregates, confocal imaging: R2R3 WT, end of ThT assay
T1 construct: Peptides spanning R2R3—including PHF6 and PHF6*; purchased ProteoGenix (Schiltigheim, France); host or cells: chemical synthesis (custom peptide)
T1 sequence (P10636 592-653 limits assumed): as the sequence (P10636 592-653 P618L) above, with L27P counted along it
Experimental: as §1
Aggregation was monitored using EnSpire Multimode Plate Reader (Revvity) at 37°C with constant agitation (1000 rpm). […] ThT fluorescence (ThT—λ ex: 460–490 nm and λem: 500–550 nm) was recorded every 5–10 min for 48 h.
as §2
as §3, with “parameter. […]” for “parameter.”
To evaluate the effect of compounds on the extent of aggregation, the AUC was calculated for each replicate ThT fluorescence curve using GraphPad Prism. […]

[1] = target: T2, preformed R2R3 (WT) fibrils (Homo sapiens, UniProt P10636); test: Elongation of preformed R2R3 (WT) fibrils, ThT; assay type: biochemical; conditions: R2R3 WT pre-aggregated 24 h, compound 10 μM; for ThT-stained aggregates from post-treatment samples, confocal imaging: further 24 h
T2 construct: Peptides spanning R2R3—including PHF6 and PHF6*; purchased ProteoGenix (Schiltigheim, France); host or cells: chemical synthesis (custom peptide)
T2 sequence (P10636 592-653 limits assumed): as the sequence (P10636 592-653 P618L) above, with L27P counted along it
Experimental: Peptides were pre‐aggregated for 24 h with aggregation kinetics monitored by ThT fluorescence, after which 10 μM PUR or OLC was added, followed by an additional 24–30 h of incubation (Figure 4a). Aggregation kinetics was monitored by ThT fluorescence, and elongation was quantified as the AUC following compound addition, normalized to each replicate's maximum pre‐treatment fluorescence (Figure 4b). […] WT peptide fibril elongation was reduced to 15.5 ± 2.8% (PUR) and 45.2 ± 3.2% (OLC), and P301L peptide fibril elongation was limited to 31.8 ± 0.6% (PUR) and 85.6 ± 2.2% (OLC) (Figure 4b). Fluorescence microscopy imaging further confirmed the presence of reduced ThT‐positive aggregates following the addition of PUR and OLC (Figure S12). Similar inhibition trends, with PUR outperforming OLC, were also observed for V287I and N279K peptides (Figure S12).
FIGURE 4 Purpurin (PUR) and oleocanthal (OLC) inhibit elongation of preformed wild‐type (WT) and P301L tau fibrils. (a) The thioflavin T (ThT) fluorescence kinetics of pre‐aggregated R2R3 (WT and P301L) tau peptides treated with PUR or OLC (10 μM). Peptides were first allowed to aggregate for 24 h, followed by compound addition and continued incubation for an additional 24–30 h. Vertical dashed lines indicate the time point of compound addition. Curves are normalized to each replicate's maximum pre‐treatment ThT fluorescence. Source data are provided in the Data Availability Statement section. Mean ± SEM (n ≥ 3). (b) Aggregation levels post‐treatment, expressed as a percentage of control (untreated fibrils), calculated from the area under the curve after compound addition. Mean ± SEM (n ≥ 3). ***p < 0.001, **p < 0.01, one‐way ANOVA (Tukey's post hoc test).
Figure S12. Confocal imaging of ThT-stained aggregates from post-treatment samples in Figure 4. R2R3 (WT and P301L) tau peptides were incubated for 24 h to allow initial aggregation, followed by the addition of PUR or OLC (10 µM). After a further 24 h, reaction mixtures from compound-treated wells were collected, embedded in 0.05% low-melting agarose, and processed for imaging as described in Figure S11. […] Scale bar: 50 μm.

C/C=C(/C=O)[C@@H](CC=O)CC(=O)OCCc1ccc(O)cc1 [OLC, oleocanthal]
aggregation (% of control), AUC of ThT fluorescence (R2R3 (P301L) tau peptide; R2R3 P301L 50 μM, compound 0.1 μM): 8%
aggregation (% of control), AUC of ThT fluorescence (R2R3 (P301L) tau peptide; R2R3 P301L 50 μM, compound 10 μM): below 10%
ThT-stained aggregates, confocal imaging (R2R3 (P301L) tau peptide; compound 10 μM): marked reduction in ThT signal
AFM morphology of aggregates (R2R3 (V287I) tau peptide): no fibrillar or aggregated structures were detected
cytotoxicity, cell viability (MTS) (Tau Biosensor cells): neither PUR nor OLC was cytotoxic; also recorded: non‐toxic
ThT-stained aggregates, confocal imaging (R2R3 (WT) tau peptide): moderate reduction in fluorescence intensity
fibril elongation, aggregation post-treatment as percentage of control (AUC after compound addition) ([1]; further 24–30 h): 45.2 ± 3.2%
ThT-stained aggregates from post-treatment samples, confocal imaging [1]: either a complete absence or a marked reduction in ThT signal

O=C1c2ccccc2C(=O)c2c(O)c(O)cc(O)c21 [PUR, purpurin]
remaining activity at 0.1 µM (R2R3 (P301L) tau peptide; R2R3 P301L 50 μM, compound 0.1 μM, read-out: aggregation (% of control), AUC of ThT fluorescence): 47%
remaining activity at 10 µM (R2R3 (P301L) tau peptide; R2R3 P301L 50 μM, compound 10 μM, read-out: aggregation (% of control), AUC of ThT fluorescence): < 10%
ThT-stained aggregates, confocal imaging (R2R3 (P301L) tau peptide; compound 10 μM): marked reduction in ThT signal
AFM morphology of aggregates (R2R3 (V287I) tau peptide): no fibrillar or aggregated structures were detected
cytotoxicity, cell viability (MTS) (Tau Biosensor cells): neither PUR nor OLC was cytotoxic; also recorded: non‐toxic
remaining activity at 10 µM (R2R3 (WT) tau peptide; R2R3 WT 50 μM, read-out: aggregation (% of control), AUC of ThT fluorescence): 63%
ThT-stained aggregates, confocal imaging (R2R3 (WT) tau peptide): moderate reduction in fluorescence intensity
remaining activity at 10 µM ([1]; further 24–30 h, read-out: fibril elongation, aggregation post-treatment as percentage of control (AUC after compound addition)): 15.5 ± 2.8%
ThT-stained aggregates from post-treatment samples, confocal imaging [1]: either a complete absence or a marked reduction in ThT signal
